Reference: PubChem BioAssay AID328 (DTP/NCI, 2004)
Toxic doses and inconclusive results are not listed.

System: BDF1 mice, P388 leukemia ip, median survival T/C
Experiment: NCI In Vivo Anticancer Drug Screen. Data for tumor model P388 Leukemia (intraperitoneal) in B6D2F1 (BDF1) mice
Settings: endpoint: median survival time, higher = longer survival
How it was run: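 Each value expresses how treatment altered survival: treated-mouse outcome over vehicle-mouse outcome, both groups bearing the transplanted tumour.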

[1] = dose: 25.0 mg/kg/injection, schedule: Q01DX009 (ip), vehicle: saline with Tween-80
[2] = dose: 50.0 mg/kg/injection, schedule: Q01DX009 (ip), vehicle: saline with Tween-80
[3] = dose: 100.0 mg/kg/injection, schedule: Q01DX009 (ip), vehicle: saline with Tween-80
[4] = dose: 200.0 mg/kg/injection, schedule: Q01DX009 (ip), vehicle: saline with Tween-80
[5] = dose: 100.0 mg/kg/injection, schedule: Q01DX009 (ip), vehicle: Klucel (hydroxypropylcellulose) (HPC)
[6] = dose: 100.0 mg/kg/injection, schedule: Q04DX003 (ip), vehicle: Klucel (hydroxypropylcellulose) (HPC)
[7] = dose: 200.0 mg/kg/injection, schedule: Q04DX003 (ip), vehicle: Klucel (hydroxypropylcellulose) (HPC)
[8] = dose: 400.0 mg/kg/injection, schedule: Q01DX009 (ip), vehicle: Klucel (hydroxypropylcellulose) (HPC)
[9] = dose: 400.0 mg/kg/injection, schedule: Q04DX003 (ip), vehicle: Klucel (hydroxypropylcellulose) (HPC)
[10] = dose: 100.0 mg/kg/injection, schedule: Q04DX003 (ip), vehicle: saline
[11] = dose: 200.0 mg/kg/injection, schedule: Q04DX003 (ip), vehicle: saline
[12] = dose: 100.0 mg/kg/injection, schedule: Q04DX003 (ip), vehicle: saline with Tween-80
[13] = dose: 100.0 mg/kg/injection, schedule: Q01DX009 (ip), vehicle: saline
[14] = dose: 200.0 mg/kg/injection, schedule: Q01DX009 (ip), vehicle: saline
[15] = dose: 50.0 mg/kg/injection, schedule: Q01DX009 (ip), vehicle: saline
[16] = dose: 400.0 mg/kg/injection, schedule: Q01DX009 (ip), vehicle: saline with Tween-80

Question: How did the T/C (dose: 3.12 mg/kg/injection, schedule: Q01DX009 (ip), vehicle: water) turn out when `NC(Cc1c[nH]c2ccccc12)C(=O)OCc1ccccc1` (stereo unspecified) was run?
Answer: 106 % of control

Question: What about the T/C (dose: 3.12 mg/kg/injection, schedule: Q04DX003 (ip), vehicle: water) of the same molecule?
Answer: 100 % of control

Question: And the T/C (dose: 6.25 mg/kg/injection, schedule: Q01DX009 (ip), vehicle: water)?
Answer: 101 % of control

Question: And the T/C (dose: 6.25 mg/kg/injection, schedule: Q04DX003 (ip), vehicle: water)?
Answer: 88 % of control

Question: And the T/C (dose: 12.5 mg/kg/injection, schedule: Q01DX009 (ip), vehicle: water)?
Answer: 93 % of control

Question: What about the T/C (dose: 12.5 mg/kg/injection, schedule: Q04DX003 (ip), vehicle: water) of the same molecule?
Answer: 123 % of control

Question: And the T/C (dose: 25.0 mg/kg/injection, schedule: Q01DX009 (ip), vehicle: water)?
Answer: 97 % of control

Question: What about the T/C (dose: 25.0 mg/kg/injection, schedule: Q04DX003 (ip), vehicle: water) of the same molecule?
Answer: 108 % of control

Question: What about the T/C (dose: 50.0 mg/kg/injection, schedule: Q01DX009 (ip), vehicle: water) of the same molecule?
Answer: 92 % of control

Question: What about the T/C (dose: 50.0 mg/kg/injection, schedule: Q04DX003 (ip), vehicle: water) of the same molecule?
Answer: 97 % of control

Question: What about the T/C (dose: 100.0 mg/kg/injection, schedule: Q01DX009 (ip), vehicle: water) of the same molecule?
Answer: 101 % of control

Question: And the T/C (dose: 200.0 mg/kg/injection, schedule: Q01DX009 (ip), vehicle: water)?
Answer: 110 % of control

Question: For `COc1ccc2nc3c(Cl)c(Cl)c(=O)c(Cl)c-3sc2c1`, which T/C (dose: 12.5 mg/kg/injection, schedule: Q01DX005 (ip), vehicle: saline with Tween-80) is on record?
Answer: 102 % of control

Question: What about the T/C (dose: 25.0 mg/kg/injection, schedule: Q01DX005 (ip), vehicle: saline with Tween-80) of the same molecule?
Answer: 88 % of control

Question: `Cc1ccc(S(=O)(=O)OC2CS(=O)(=O)C2)cc1` was tested. Which T/C [1] did it give?
Answer: 102 % of control

Question: What about the T/C [2] of the same molecule?
Answer: 100 % of control

Question: What about the T/C [3] of the same molecule?
Answer: 102 % of control

Question: What about the T/C [4] of the same molecule?
Answer: 102 % of control

Question: For `CC1CC(=O)C(O)C2(C)C1CC1OC(=O)C(OC(=O)c3ccccc3)C3C(C)C(O)C4(O)OCC13C42` (stereo unspecified), which T/C (dose: 0.12 mg/kg/injection, schedule: Q01DX009 (ip), vehicle: saline with Tween-80) is on record?
Answer: 110 % of control

Question: What about the T/C (dose: 0.25 mg/kg/injection, schedule: Q01DX009 (ip), vehicle: saline with Tween-80) of the same molecule?
Answer: 121 % of control

Question: And the T/C (dose: 1.0 mg/kg/injection, schedule: Q01DX009 (ip), vehicle: saline with Tween-80)?
Answer: 118 % of control

Question: And the T/C (dose: 2.0 mg/kg/injection, schedule: Q01DX009 (ip), vehicle: saline with Tween-80)?
Answer: 121 % of control

Question: What about the T/C (dose: 4.0 mg/kg/injection, schedule: Q01DX009 (ip), vehicle: saline with Tween-80) of the same molecule?
Answer: 112 % of control

Question: And the T/C (dose: 8.0 mg/kg/injection, schedule: Q01DX009 (ip), vehicle: saline with Tween-80)?
Answer: 116 % of control

Question: What about the T/C (dose: 16.0 mg/kg/injection, schedule: Q01DX009 (ip), vehicle: saline with Tween-80) of the same molecule?
Answer: 118 % of control

Question: For `C=C(C(=O)OC1C/C(C)=C/C(O)C/C(C)=C/C2OC(=O)C(=C)C21)C(C)O` (stereo unspecified), which T/C (dose: 100.0 mg/kg/injection, schedule: Q04DX002 (ip), vehicle: Klucel (hydroxypropylcellulose) (HPC)) is on record?
Answer: 120 % of control

Question: Which T/C [2] does the source give for `FC(F)(F)c1cc(-c2ccc(C3Nc4ccccc4-n4cccc43)o2)cc(C(F)(F)F)c1` (stereo unspecified) here?
Answer: 92 % of control

Question: And the T/C [3]?
Answer: 90 % of control

Question: What about the T/C [4] of the same molecule?
Answer: 92 % of control

Question: With `O=C1c2ccccc2C(=O)N1N(c1ccccc1)c1ccccc1` as the molecule, how does the T/C [5] read?
Answer: 104 % of control

Question: And the T/C [6]?
Answer: 110 % of control

Question: What about the T/C [7] of the same molecule?
Answer: 120 % of control

Question: And the T/C [8]?
Answer: 100 % of control

Question: What about the T/C [9] of the same molecule?
Answer: 105 % of control

Question: With `O=C(OCCBr)c1ccccc1[N+](=O)[O-]` as the molecule, how does the T/C [10] read?
Answer: 100 % of control

Question: And the T/C [11]?
Answer: 104 % of control

Question: And the T/C (dose: 400.0 mg/kg/injection, schedule: Q04DX003 (ip), vehicle: saline)?
Answer: 109 % of control

Question: `CCCCCCCCN(c1ccc(I)cc1)S(=O)(=O)c1ccc(C)cc1` was tested. Which T/C (dose: 50.0 mg/kg/injection, schedule: Q04DX003 (ip), vehicle: saline with Tween-80) did it give?
Answer: 111 % of control

Question: What about the T/C [12] of the same molecule?
Answer: 111 % of control

Question: For `C#CC1(OCC2CO2)CCCCC1` (stereo unspecified), which T/C [13] is on record?
Answer: 92 % of control

Question: What about the T/C [10] of the same molecule?
Answer: 110 % of control

Question: What about the T/C [14] of the same molecule?
Answer: 103 % of control

Question: What about the T/C [11] of the same molecule?
Answer: 110 % of control

Question: And the T/C (dose: 400.0 mg/kg/injection, schedule: Q01DX009 (ip), vehicle: saline)?
Answer: 92 % of control

Question: With `c1c(NC2=NCCO2)cc2c3c1CCCN3CCC2` as the molecule, how does the T/C (dose: 12.5 mg/kg/injection, schedule: Q01DX009 (ip), vehicle: saline with Tween-80) read?
Answer: 104 % of control

Question: What about the T/C [1] of the same molecule?
Answer: 118 % of control

Question: And the T/C [2]?
Answer: 113 % of control

Question: Which results are given for `CCOC(=O)C(COS(=O)(=O)c1ccc(C)cc1)(COS(=O)(=O)c1ccc(C)cc1)C(=O)OCC`?
Answer: T/C [5]: 108 % of control; T/C [6]: 100 % of control; T/C (dose: 200.0 mg/kg/injection, schedule: Q01DX009 (ip), vehicle: Klucel (hydroxypropylcellulose) (HPC)): 104 % of control; T/C [7]: 104 % of control; T/C [8]: 100 % of control; T/C [9]: 100 % of control

Question: `COc1ccc(/C=C/C(=O)c2ccc(OC)cc2)cc1` was tested. Which T/C [6] did it give?
Answer: 100 % of control

Question: And the T/C [7]?
Answer: 104 % of control

Question: And the T/C [9]?
Answer: 95 % of control

Question: With `O=c1[nH]nnc2ccccc12` as the molecule, how does the T/C (dose: 25.0 mg/kg/injection, schedule: Q01DX009 (ip), vehicle: saline) read?
Answer: 95 % of control

Question: What about the T/C (dose: 25.0 mg/kg/injection, schedule: Q04DX003 (ip), vehicle: Klucel (hydroxypropylcellulose) (HPC)) of the same molecule?
Answer: 100 % of control

Question: What about the T/C (dose: 37.5 mg/kg/injection, schedule: Q04DX003 (ip), vehicle: Klucel (hydroxypropylcellulose) (HPC)) of the same molecule?
Answer: 100 % of control

Question: What about the T/C [15] of the same molecule?
Answer: 95 % of control

Question: And the T/C (dose: 50.0 mg/kg/injection, schedule: Q04DX003 (ip), vehicle: Klucel (hydroxypropylcellulose) (HPC))?
Answer: 104 % of control

Question: And the T/C (dose: 75.0 mg/kg/injection, schedule: Q04DX003 (ip), vehicle: Klucel (hydroxypropylcellulose) (HPC))?
Answer: 95 % of control

Question: What about the T/C [13] of the same molecule?
Answer: 90 % of control

Question: And the T/C [6]?
Answer: 100 % of control

Question: What about the T/C (dose: 150.0 mg/kg/injection, schedule: Q01DX009 (ip), vehicle: Klucel (hydroxypropylcellulose) (HPC)) of the same molecule?
Answer: 100 % of control

Question: And the T/C (dose: 150.0 mg/kg/injection, schedule: Q04DX003 (ip), vehicle: Klucel (hydroxypropylcellulose) (HPC))?
Answer: 109 % of control

Question: How did the T/C [3] turn out when `CCCCCCCCSP(=S)(N1CC1)N1CC1` was run?
Answer: 90 % of control

Question: What about the T/C [12] of the same molecule?
Answer: 88 % of control

Question: What about the T/C [4] of the same molecule?
Answer: 100 % of control

Question: And the T/C (dose: 200.0 mg/kg/injection, schedule: Q04DX003 (ip), vehicle: saline with Tween-80)?
Answer: 94 % of control

Question: What about the T/C [16] of the same molecule?
Answer: 95 % of control

Question: And the T/C (dose: 400.0 mg/kg/injection, schedule: Q04DX003 (ip), vehicle: saline with Tween-80)?
Answer: 88 % of control

Question: For `O=c1cc(-c2ccc(OCc3ccccc3)c(-c3c(OCc4ccccc4)cc(OCc4ccccc4)c4c(=O)cc(-c5ccc(OCc6ccccc6)cc5)oc34)c2)oc2cc(OCc3ccccc3)cc(OCc3ccccc3)c12`, which T/C (dose: 100.0 mg/kg/injection, schedule: Q01DX001 (ip), vehicle: saline with Tween-80) is on record?
Answer: 88 % of control

Question: With `C=CC(=O)NCCC(=O)O` as the molecule, how does the T/C [15] read?
Answer: 100 % of control

Question: What about the T/C [13] of the same molecule?
Answer: 90 % of control

Question: And the T/C [14]?
Answer: 94 % of control

Question: Which results are given for `O=C1CC(c2ccc(OCN(CCCl)CCCl)cc2)CC(=O)C1CN(CCCl)CCCl` (stereo unspecified)?
Answer: T/C (dose: 0.5 mg/kg/injection, schedule: Q01DX009 (ip), vehicle: Klucel (hydroxypropylcellulose) (HPC)): 124 % of control; T/C (dose: 4.0 mg/kg/injection, schedule: Q01DX009 (ip), vehicle: Klucel (hydroxypropylcellulose) (HPC)): 160 % of control

Question: How did the T/C [3] turn out when `COC1C(OC(=O)c2ccc(C)[nH]2)C(O)C(Oc2ccc3c(O)c(NC(=O)c4c[nH]c(C(=O)Nc5c(O)c6ccc(OC7OC(C)(C)C(OC)C(OC(=O)c8ccc(C)[nH]8)C7O)c(C)c6oc5=O)c4C)c(=O)oc3c2C)OC1(C)C` (stereo unspecified) was run?
Answer: 90 % of control

Question: And the T/C [4]?
Answer: 109 % of control

Question: What about the T/C [16] of the same molecule?
Answer: 163 % of control
